Tests used:
[1] = target: T1, BtMinpp (Bacteroides thetaiotaomicron, UniProt Q89YI8); assay: X-ray crystal structure, […] Å; assay type: binding; conditions: active site; nonhydrolysable InsP6 analog
T1 construct: gene BT_4744; N-terminal 6xHis fusion, expressed in Escherichia coli
T1 sequence (Q89YI8 21-425): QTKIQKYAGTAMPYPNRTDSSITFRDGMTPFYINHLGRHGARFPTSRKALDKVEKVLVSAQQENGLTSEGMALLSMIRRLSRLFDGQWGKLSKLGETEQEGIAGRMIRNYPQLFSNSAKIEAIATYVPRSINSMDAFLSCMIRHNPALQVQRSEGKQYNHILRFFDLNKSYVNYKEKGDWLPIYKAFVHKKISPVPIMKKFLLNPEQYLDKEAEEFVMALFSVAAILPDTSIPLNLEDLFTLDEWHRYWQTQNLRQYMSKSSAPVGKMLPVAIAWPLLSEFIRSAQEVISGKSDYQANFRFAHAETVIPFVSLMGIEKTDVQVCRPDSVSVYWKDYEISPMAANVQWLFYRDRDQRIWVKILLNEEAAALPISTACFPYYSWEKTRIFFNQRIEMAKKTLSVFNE

[2] = target: T1, BtMinpp; assay: HPLC of […]-labelled products; phosphatase activity; assay type: biochemical; conditions: 1 mM InsP6; 0.25 μg/ml enzyme; labelled compound

Structure (SMILES) | X-ray crystal structure, 2.42 Å [1] | HPLC of 32P-labelled products; phosphatase activity [2]
O=S(=O)(O)O[C@H]1[C@H](OS(=O)(=O)O)[C@@H](OS(=O)(=O)O)[C@H](OS(=O)(=O)O)[C@@H](OS(=O)(=O)O)[C@H]1OS(=O)(=O)O [InsS6, myo-inositol hexakissulfate] | myo-inositol hexakissulfate (InsS6), again bound in the active sites of both molecules | 
O=P(O)(O)O[C@H]1[C@H](OP(=O)(O)O)[C@@H](OP(=O)(O)O)[C@H](OP(=O)(O)O)[C@@H](OP(=O)(O)O)[C@H]1OP(=O)(O)O [InsP6] |  | confirmed that this protein has InsP6 phosphatase activity (Figure 1A)

Source: paper PMC3969271, “A Bacterial Homolog of a Eukaryotic Inositol Phosphate Signaling Enzyme Mediates Cross-kingdom Dialog in the Mammalian Gut” (Cell Reports, 2014)
